Results published in patent US20110172274A1, “FLUORO-SUBSTITUTED 3,4-DIARYL-4,5-DIHYDRO-1H-PYRAZOLE-1-CARBOXAMIDINE DERIVATIVES HAVING CB1-ANTAGONISTIC ACTIVITY” (priority 2008, published 2011).
pKi: −log10 of the molar value.

Assays:
[1] = target: T1, human cannabinoid CB1 receptors (Homo sapiens, UniProt P21554); assay: In vitro affinity for cannabinoid-CB1 receptors, [3H]CP-55,940 radioligand binding, CHO cell membranes; details: for pKi: CHO membranes, [3H]CP-55,940, means of at least two independent experiments, read-out: receptor binding h-CB1 receptor Ki; for factor of higher affinity for human CB1 receptors than non-fluorinated analog compound 24: (S)-(-)-enantiomers versus compound 24
T1 construct: expressed in transfected cells; host or cells: Chinese hamster ovary (CHO) cells, membrane preparations
T1 sequence (P21554 whole entry): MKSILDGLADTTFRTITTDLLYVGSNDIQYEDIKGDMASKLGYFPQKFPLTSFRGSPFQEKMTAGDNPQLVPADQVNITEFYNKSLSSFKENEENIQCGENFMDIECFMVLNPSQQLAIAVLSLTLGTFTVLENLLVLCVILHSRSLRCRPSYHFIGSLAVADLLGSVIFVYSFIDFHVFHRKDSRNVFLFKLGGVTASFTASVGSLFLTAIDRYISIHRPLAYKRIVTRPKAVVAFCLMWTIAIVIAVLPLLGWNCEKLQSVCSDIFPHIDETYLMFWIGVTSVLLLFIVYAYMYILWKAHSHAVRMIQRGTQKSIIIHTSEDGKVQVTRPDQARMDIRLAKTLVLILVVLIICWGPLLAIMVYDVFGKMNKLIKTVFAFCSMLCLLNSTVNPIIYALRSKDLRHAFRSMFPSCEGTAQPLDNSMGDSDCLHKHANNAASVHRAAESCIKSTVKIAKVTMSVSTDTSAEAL
Description: In vitro affinity for cannabinoid-CB1 receptors was determined using membrane preparations of Chinese hamster ovary (CHO) cells wherein human cannabinoid CB1 receptors were stably transfected in conjunction with [^3H]CP-55,940 as radioligand. After incubation of a freshly prepared cell membrane preparation with the [^3H]-ligand, with or without addition of compounds of the invention, separation of bound and free ligand was performed by filtration over glassfiber filters. Radioactivity on the filter was measured by liquid scintillation counting. The binding data were either obtained by CEREP (128, rue Danton, 92500 Rueil-Malmaison, France) or at Solvay Pharmaceuticals B.V. (C. J. van Houtenlaan 36, 1381 CP Weesp, The Netherlands).

[2] = target: T2, human cannabinoid CB2 receptors (Homo sapiens, UniProt P34972); assay: In vitro affinity for cannabinoid-CB2 receptors, [3H]CP-55,940 radioligand binding, CHO cell membranes; details: means of at least two independent experiments, read-out: receptor binding h-CB2 receptor Ki
T2 construct: expressed in transfected cells; host or cells: CHO cells, membrane preparations
T2 sequence (P34972 whole entry): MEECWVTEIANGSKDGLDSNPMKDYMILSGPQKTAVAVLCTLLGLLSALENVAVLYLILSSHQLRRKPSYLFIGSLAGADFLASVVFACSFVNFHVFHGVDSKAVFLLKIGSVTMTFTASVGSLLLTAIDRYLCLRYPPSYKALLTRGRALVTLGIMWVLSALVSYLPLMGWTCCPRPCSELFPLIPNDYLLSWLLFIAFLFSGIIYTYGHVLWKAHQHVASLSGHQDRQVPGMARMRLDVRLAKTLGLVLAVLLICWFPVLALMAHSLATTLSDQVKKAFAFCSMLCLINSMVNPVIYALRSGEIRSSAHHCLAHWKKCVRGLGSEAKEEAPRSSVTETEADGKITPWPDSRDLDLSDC
Description: In vitro affinity for cannabinoid-CB2 receptors was determined using membrane preparations of CHO cells wherein human cannabinoid CB2 receptors were stably transfected in conjunction with [^3H]CP-55,940 as radioligand. After incubation of a freshly prepared cell membrane preparation with the [^3H]-ligand, with or without addition of compounds of the invention, separation of bound and free ligand was performed by filtration over glassfiber filters. Radioactivity on the filter was measured by liquid scintillation counting.

rat CB1 receptor = target: T3, rat CB1 receptor (Rattus norvegicus, UniProt P20272); assay: In vivo cannabinoid-CB1 receptor antagonism, CP-55,940-induced hypotension test in rat; details: for ED50: rat, p.o., anaesthetized male rats, CP-55,940 0.1 mg/kg i.v., read-out: blood pressure rat CB1 receptor ED50 (mg/kg, p.o.)
T3 construct: Male normotensive rats (225-300 g; Harlan, Horst, The Netherlands) were anaesthetized; from tissue; host or cells: whole animal: male normotensive rats (Harlan)
T3 sequence (P20272 whole entry): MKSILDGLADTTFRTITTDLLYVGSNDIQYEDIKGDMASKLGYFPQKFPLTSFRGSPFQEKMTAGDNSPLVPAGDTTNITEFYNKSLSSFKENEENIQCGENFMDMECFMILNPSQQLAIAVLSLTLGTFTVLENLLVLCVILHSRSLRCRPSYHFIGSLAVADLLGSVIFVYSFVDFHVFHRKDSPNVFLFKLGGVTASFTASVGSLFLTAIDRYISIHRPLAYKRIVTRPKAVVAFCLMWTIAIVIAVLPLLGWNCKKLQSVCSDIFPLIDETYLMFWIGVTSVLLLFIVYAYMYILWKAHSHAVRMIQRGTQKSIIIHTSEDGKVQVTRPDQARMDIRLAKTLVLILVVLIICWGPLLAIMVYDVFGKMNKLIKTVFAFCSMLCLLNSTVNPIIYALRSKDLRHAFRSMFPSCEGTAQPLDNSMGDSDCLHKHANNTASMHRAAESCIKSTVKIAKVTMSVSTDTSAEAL
Description: In vivo cannabinoid-CB1 receptor antagonism was assessed with the CP-55,940-induced hypotension test in rat. Male normotensive rats (225-300 g; Harlan, Horst, The Netherlands) were anaesthetized with pentobarbital (80 mg/kg ip). Blood pressure was measured, via a cannula inserted into the left carotid artery, by means of a Spectramed DTX-plus pressure transducer (Spectramed B.V., Bilthoven, The Netherlands). After amplification by a Nihon Kohden Carrier Amplifier (Type AP-621G; Nihon Kohden B.V., Amsterdam, The Netherlands), the blood pressure signal was registered on a personal computer (Compaq Deskpro 386s), by means of a Po-Ne-Mah data-acquisition program (Po-Ne-Mah Inc., Storrs, USA). Heart rate was derived from the pulsatile pressure signal. All compounds were administered orally as a microsuspension in 1% methylcellulose 30 minutes before induction of the anesthesia, 60 minutes prior to administration of the CB1 receptor agonist CP-55,940. The injection volume was 10 ml/kg. After haemodynamic stabilization the CB1 receptor agonist CP-55,940 (0.1 mg/kg i.v.) was administered and the hypotensive effect established (Wagner 2001).

CN/C(=N\S(=O)(=O)N1CCC(C(F)(F)F)CC1)N1CC(c2ccccc2)C(c2ccc(Cl)cc2)=N1 (racemic) [compound 2, N-[(4-(Trifluoromethyl)piperidin-1-yl)sulfonyl]-N′-methyl-3-(4-chlorophenyl)-4-phenyl-4,5-dihydro-(1H)-pyrazole-1-carboxamidine]
pKi [1]: 8.52

CN=C(NS(=O)(=O)N1CCC(F)(F)CC1)N1C[C@H](c2ccccc2)C(c2ccc(Cl)cc2)=N1 [compound 8, (−)-(4S)—N-[(4,4-difluoropiperidin-1-yl)sulfonyl]-N′-methyl-3-(4-chlorophenyl)-4-phenyl-4,5-dihydro-(1H)-pyrazole-1-carboxamidine]
factor of higher affinity for human CB1 receptors than non-fluorinated analog compound 24 [1]: 12 fold
pKi [1]: 8.30

CN(C)/C(=N/S(=O)(=O)N1CCC(F)(F)CC1)N1CC(c2ccccc2)C(c2ccc(Cl)cc2)=N1 (centres unmarked) [compound 7, N^2-[(4,4-Difluoropiperidin-1-yl)sulfonyl]-N^1-dimethyl-3-(4-chlorophenyl)-4-phenyl-4,5-dihydro-(1H)-pyrazole-1-carboxamidine]
pKi [1]: 7.60

CN=C(NS(=O)(=O)N1CCC(C(F)(F)F)CC1)N1C[C@H](c2ccccc2)C(c2ccc(Cl)cc2)=N1 [compound 9, (−)-(4S)—N-[(4-(Trifluoromethyl)piperidin-1-yl)sulfonyl]-N′-methyl-3-(4-chlorophenyl)-4-phenyl-4,5-dihydro-(1H)-pyrazole-1-carboxamidine]
pKi [2]: 6.50
in vivo activity after oral administration compared with compound 24 (rat CB1 receptor; oral administration, CP-55,940-induced hypotension test): more active
ED50 (rat CB1 receptor): 2 mg/kg
factor of higher affinity for human CB1 receptors than non-fluorinated analog compound 24 [1]: 19 fold
pKi [1]: 8.52

CN/C(=N/S(=O)(=O)N1CCCCC1)N1C[C@H](c2ccccc2)C(c2ccc(Cl)cc2)=N1 [compound 24, reference compound]
pKi [2]: 5.46
ED50 (rat CB1 receptor): 8 mg/kg
pKi [1]: 7.24

CN=C(NS(=O)(=O)N1CCCC(F)C1)N1CC(c2ccccc2)C(c2ccc(Cl)cc2)=N1 (racemic) [compound 4, N-[(3-Fluoropiperidin-1-yl)sulfonyl]-N′-methyl-3-(4-chlorophenyl)-4-phenyl-4,5-dihydro-(1H)-pyrazole-1-carboxamidine]
pKi [1]: 7.80
melting point: 170 to 171 °C

CN=C(NS(=O)(=O)N1CCC(C(F)(F)F)CC1)N1C[C@@H](c2ccccc2)C(c2ccc(Cl)cc2)=N1 [compound 10, (+)-(4R)—N-[(4-(Trifluoromethyl)piperidin-1-yl)sulfonyl]-N′-methyl-3-(4-chlorophenyl)-4-phenyl-4,5-dihydro-(1H)-pyrazole-1-carboxamidine]
pKi [2]: < 6.00
in vivo activity in the hypotension test (rat CB1 receptor; given at 30 mg/kg): devoid of in vivo activity
ED50 (rat CB1 receptor): > 30 mg/kg
pKi [1]: 6.90
affinity for human CB1 receptors, fold less than that of compound 9 ([1]; distomer versus eutomer compound 9): about 40 fold

CN=C(NS(=O)(=O)N1CCC(F)(F)CC1)N1CC(c2ccccc2)C(c2ccc(Cl)cc2)=N1 (racemic) [compound 1, N-[(4,4-difluoropiperidin-1-yl)sulfonyl]-N′-methyl-3-(4-chlorophenyl)-4-phenyl-4,5-dihydro-(1H)-pyrazole-1-carboxamidine]
pKi [1]: 8.00

CCN=C(NS(=O)(=O)N1CCC(F)(F)CC1)N1CC(c2ccccc2)C(c2ccc(Cl)cc2)=N1 (racemic) [compound 6, N-[(4,4-Difluoropiperidin-1-yl)sulfonyl]-N′-ethyl-3-(4-chlorophenyl)-4-phenyl-4,5-dihydro-(1H)-pyrazole-1-carboxamidine]
pKi [1]: 8.00

CN=C(NS(=O)(=O)N1CCCC(F)(F)C1)N1CC(c2ccccc2)C(c2ccc(Cl)cc2)=N1 (racemic) [compound 5, N-[(3,3-Difluoropiperidin-1-yl)sulfonyl]-N′-methyl-3-(4-chlorophenyl)-4-phenyl-4,5-dihydro-(1H)-pyrazole-1-carboxamidine]
pKi [1]: 8.00
melting point: 166 to 167 °C

CNC(=NS(=O)(=O)N1CCCCC1)N1C[C@@H](c2ccccc2)C(c2ccc(Cl)cc2)=N1 [compound 25, reference compound]
pKi [1]: 6.12

CNC(=NS(=O)(=O)N1CCC(F)CC1)N1CC(c2ccccc2)C(c2ccc(Cl)cc2)=N1 (racemic) [compound 3, N-[(4-Fluoropiperidin-1-yl)sulfonyl]-N′-methyl-3-(4-chlorophenyl)-4-phenyl-4,5-dihydro-(1H)-pyrazole-1-carboxamidine]
pKi [1]: 8.30

CN/C(=N/S(=O)(=O)N1CCCCC1)N1CC(c2ccccc2)C(c2ccc(Cl)cc2)=N1 (centres unmarked) [compound 21, reference compound]
pKi [1]: 6.82
